In ChEMBL document CHEMBL2086347, “Antitrypanosomal and cysteine protease inhibitory activities of alkyldiamine cryptolepine derivatives” (Bioorg Med Chem Lett, 2012):

Key:
[1] = Inhibition of Trypanosoma cruzi cruzaine
[2] = Selectivity index, ratio of CC50 for african green monkey Vero cells to IC50 for Trypanosoma brucei brucei; format: functional
[3] = biological target: Rhodesain (Trypanosoma brucei rhodesiense, UniProt Q95PM0); test: Inhibition of Trypanosoma brucei rhodesiense rhodesain
[4] = biological target: T1, Cathepsin B-like cysteine protease (Trypanosoma brucei, UniProt Q6R7Z5); test: Inhibition of Trypanosoma brucei CatB
T1 sequence (Q6R7Z5 whole entry): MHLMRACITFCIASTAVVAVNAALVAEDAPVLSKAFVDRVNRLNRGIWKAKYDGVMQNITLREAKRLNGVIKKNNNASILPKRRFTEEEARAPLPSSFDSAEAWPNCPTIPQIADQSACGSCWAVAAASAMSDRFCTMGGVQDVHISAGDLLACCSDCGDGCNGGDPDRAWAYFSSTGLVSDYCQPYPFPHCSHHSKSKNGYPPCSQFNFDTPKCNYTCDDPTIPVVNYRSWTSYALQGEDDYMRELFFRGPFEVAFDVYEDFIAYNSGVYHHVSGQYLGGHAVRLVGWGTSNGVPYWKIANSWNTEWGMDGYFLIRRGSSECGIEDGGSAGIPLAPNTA

[5] = Cytotoxicity against african green monkey Vero cells; format: cell-based; settings: chlorocebus sabaeus
[6] = test system: Trypanosoma brucei brucei; test: Antitrypanosomal activity against Trypanosoma brucei brucei; format: functional, organism-based

Chain of Rhodesain (Q95PM0 whole entry): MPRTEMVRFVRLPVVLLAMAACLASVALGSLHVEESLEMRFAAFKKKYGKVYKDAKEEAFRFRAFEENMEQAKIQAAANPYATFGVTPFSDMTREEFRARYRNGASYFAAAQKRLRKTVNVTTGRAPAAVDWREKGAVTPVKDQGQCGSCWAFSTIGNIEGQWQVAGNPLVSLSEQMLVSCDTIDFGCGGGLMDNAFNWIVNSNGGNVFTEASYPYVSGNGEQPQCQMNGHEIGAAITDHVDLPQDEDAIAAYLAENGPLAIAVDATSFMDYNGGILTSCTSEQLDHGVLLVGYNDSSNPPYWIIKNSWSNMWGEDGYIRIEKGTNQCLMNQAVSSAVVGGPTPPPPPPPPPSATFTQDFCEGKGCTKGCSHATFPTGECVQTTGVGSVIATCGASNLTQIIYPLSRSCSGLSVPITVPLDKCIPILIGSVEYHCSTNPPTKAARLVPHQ

Row | Compound | IC50 [1] | Ratio CC50/IC50 [2] | IC50 [3] | IC50 [4] | CC50 [5] | IC50 [6]
1 | C[n+]1c2cc(Cl)ccc2c(NC2CCNCC2)c2[nH]c3ccccc3c21.[Cl-] | 1 µM | 147 | 0.5 µM | 59 µM | 4.4 µM | 0.3 µM
2 | C[n+]1c2cc(Cl)ccc2c(NC2CCNCC2)c2[nH]c3cc(Cl)ccc3c21.[Cl-] | 1 µM | 133 | 0.5 µM | 43 µM | 0.8 µM | < 0.006 µM
3 | CCN(CC)CCCCNc1c2ccccc2[n+](C)c2c1[nH]c1ccccc12.[Cl-] | 22 µM | 333 | 6 µM | 55 µM | 10 µM | 0.03 µM
4 | C[n+]1c2ccccc2c(Nc2ccc(N3CCCCC3)cc2)c2[nH]c3ccccc3c21.[Cl-] | 3 µM | 60 | 1 µM | 76 µM | 4.8 µM | 0.08 µM
5 | CC(C)CN1CCC(Nc2c3ccccc3[n+](C)c3c2[nH]c2ccccc23)CC1.[Cl-] | 8 µM | 100 | 2 µM | 26 µM | 5 µM | 0.05 µM
6 | C[n+]1c2ccccc2c(NC2CCN(Cc3ccccc3)CC2)c2[nH]c3ccccc3c21.[Cl-] | 8 µM | 73 | 4 µM | 32 µM | 2.2 µM | 0.03 µM
7 | C[n+]1c2ccccc2c(NC2CCN(Cc3ccccc3O)CC2)c2[nH]c3ccccc3c21.[Cl-] | 6 µM | 65 | 0.9 µM | 26 µM | 2.6 µM | 0.04 µM
8 | C[n+]1c2ccccc2c(Nc2ccccc2)c2[nH]c3ccccc3c21.[Cl-] | 15 µM | 2 | 7 µM | 99 µM | 0.6 µM | 0.3 µM
9 | CCN(CC)Cc1ccc(Nc2c3ccccc3[n+](C)c3c2[nH]c2ccccc23)cc1O.[Cl-] | 10 µM | 27 | 5 µM | 59 µM | 0.8 µM | 0.03 µM
10 | C[n+]1c2ccccc2c(Nc2cccnc2)c2[nH]c3ccccc3c21.[Cl-] | 5 µM | 8.6 | 2 µM | 59 µM | 2.6 µM | 0.3 µM
11 | CCN(CC)CCCNc1c2ccc(Cl)cc2[n+](C)c2c1[nH]c1ccccc12.[Cl-] | 2 µM | 65 | 0.5 µM | 64 µM | 1.3 µM | 0.02 µM
12 | CCN(CC)CCNc1c2ccccc2[n+](C)c2c1[nH]c1ccccc12.[Cl-] | 23 µM | 3.1 | 11 µM | 95 µM | 2.8 µM | 0.9 µM
13 | CN(C)CCCNc1c2ccccc2[n+](C)c2c1[nH]c1ccccc12.[Cl-] | 14 µM | 73 | 6 µM | 31 µM | 2.2 µM | 0.03 µM
14 | CCN(CC)CCCNc1c2ccccc2[n+](C)c2c1[nH]c1ccccc12.[Cl-] | 34 µM | 40 | 13 µM | 97 µM | 2.5 µM | 0.05 µM
15 | CC(C)NCCCNc1c2ccccc2[n+](C)c2c1[nH]c1ccccc12.[Cl-] | 42 µM | 30 | 26 µM | 62 µM | 3 µM | 0.1 µM
16 | CCN(CC)CCCC(C)Nc1c2ccccc2[n+](C)c2c1[nH]c1ccccc12.[Cl-] (stereo unspecified) | 27 µM | 33 | 17 µM | > 100 µM | 13 µM | 0.4 µM
17 | CC(CN(C)C)Nc1c2ccccc2[n+](C)c2c1[nH]c1ccccc12.[Cl-] (stereo unspecified) | 10 µM | 3 | 5 µM | > 100 µM | 3 µM | 1 µM
18 | C[n+]1c2ccccc2c(NC2CCNCC2)c2[nH]c3ccccc3c21.[Cl-] | 3 µM | 6200 | 2 µM |  | 62 µM | 0.01 µM
19 | CN(C)CC(C)(C)CNc1c2ccccc2[n+](C)c2c1[nH]c1ccccc12.[Cl-] | 26 µM | 10 | 19 µM | 62 µM | 3 µM | 0.3 µM
20 | C[n+]1c2ccccc2c(NCCCN2CCCCC2)c2[nH]c3ccccc3c21.[Cl-] | 11 µM | 33 | 5 µM | 60 µM | 2 µM | 0.06 µM
21 | CN(C)CCNc1c2ccccc2[n+](C)c2c1[nH]c1ccccc12.[Cl-] | 23 µM | 7.9 | 7 µM | 91 µM | 5.5 µM | 0.7 µM
22 | C[n+]1c2ccccc2cc2[n-]c3ccccc3c21.Cl [CRYPTOLEPINE HYDROCHLORIDE] | 28 µM | 0.6 | 23 µM | 64 µM | 1.1 µM | 2 µM
